Data taken from patent US20060111289A1, “Compositions and methods of using Alpha-fetoprotein growth inhibitory peptides” (Serometrix, LLC,, priority 2004, published 2006).
Read-outs that look alike come from different tables or passages of the source. Where a SMILES comes first, the peptide text is derived from it.

How the values were obtained:
Molt-4 = Molt-4 (white blood cell, leukemia); 2-Day Assay; Conc. 10^−2 Molar
MDA-MB-435 = MDA-MB-435 (breast, AC); 2-Day Assay; Conc. 10^−1 Molar
U-251 = U-251 (central nervous system, CA); 2-Day Assay; Conc. 10^−2 Molar
PC-3 = PC-3 (prostate, AC); 2-Day Assay; Conc. 10^−1 Molar
K-562 = K-562 (white blood cell, leukemia); 6-Day Assay; Conc. 10^−7 Molar
Colo-205 = Colo-205 (colon, AC)
SF-539 = SF-539 (central nervous system, CA)
UACC-257 = UACC-257 (melanoma, squamous); 2-Day Assay; Conc. 10^−2 Molar
MDA-MB-231 = MDA-MB-231 (breast, AC); 6-Day Assay; Conc. 10^−7 only Molar
RXF-393 = RXF-393 (kidney, renal CA); 2-Day Assay; Conc. 10^−1 Molar
IGROV1 = IGROV1 (ovary, AC); 2-Day Assay; Conc. 10^−1 Molar
ACHN = ACHN (kidney, renal CA); 2-Day Assay; Conc. 10^−2 Molar
SK-MeL-5 = SK-MeL-5 (melanoma, squamous)
CCRF-CEM = CCRF-CEM (white blood cell, leukemia)
T-47D = T-47D (breast, AC)
NCI-H226 = NCI-H226 (non-small cell lung, CA)
HCC-299 = HCC-299 (colon, AC); 2-Day Assay; Conc. 10^−1 Molar
MCF-7 = MCF-7 (breast, AC); 2-Day Assay; Conc. 10^−2 Molar
OVCAR-3 = OVCAR-3 (ovary, AC); 2-Day Assay; Conc. 10^−2 Molar
60 cancer cell lines = assay: NCI screen of 60 cancer cell lines, 2 day versus 6-day sulforhodamine assay; type: cell-based, human; conditions: nine different cancer cell types
From the text: These findings detailed the in vitro results of the GIP challenges against 60 different cell culture lines representing a variety of human cancers.

NCI-H460 = NCI-H460 (non-small cell lung, CA); 2-Day Assay; Conc. 10^−2 Molar
DU-145 = DU-145 (prostate, AC); 2-Day Assay; Conc. 10^−1 Molar
[1] = system: human kidney tumor cell line

CC[C@H](C)[C@H](NC(=O)[C@H](CS)NC(=O)[C@H](CC(C)C)NC(=O)[C@H](Cc1c[nH]cn1)NC(=O)CNC(=O)[C@@H](NC(=O)[C@@H](NC(=O)[C@@H](NC(=O)[C@H](CC(=O)O)NC(=O)[C@H](C)NC(=O)[C@H](C)NC(=O)CNC(=O)[C@H](CCC(=O)O)NC(=O)CNC(=O)[C@H](CS)NC(=O)[C@H](C)NC(=O)[C@H](CC(C)C)NC(=O)[C@H](CC(C)C)NC(=O)[C@H](CCCCN)NC(=O)[C@H](CC(=O)O)NC(=O)[C@H](CCC(=O)O)NC(=O)[C@H](CO)NC(=O)[C@@H](N)CC(C)C)[C@@H](C)CC)[C@@H](C)CC)[C@@H](C)CC)C(=O)N[C@@H](CCCNC(=N)N)C(=O)N[C@@H](Cc1c[nH]cn1)C(=O)N[C@@H](CCC(=O)O)C(=O)N[C@@H](CCSC)C(=O)N[C@H](C(=O)N1CCC[C@H]1C(=O)N[C@H](C(=O)N[C@@H](CC(N)=O)C(=O)N1CCC[C@H]1C(=O)NCC(=O)N[C@H](C(=O)O)C(C)C)C(C)C)[C@@H](C)O [P149] (H-LSEDKLLACGEGAADIIIGHLCIRHEMTPVNPGV-OH)
% Growth Inhibition (Molt-4): 5% | % Growth Inhibition (MDA-MB-435): 20% | % Growth Inhibition (U-251): 15% | % Growth Inhibition (PC-3): 5% | % Growth Inhibition (K-562): 45% | % Growth Inhibition (Colo-205; 2-Day Assay, Conc. 10^−2 Molar): 10% | % Growth Inhibition (Colo-205; 6-Day Assay, Conc. 10^−5 Molar): 10% | % Growth Inhibition (SF-539; 2-Day Assay, Conc. 10^−2 Molar): 10% | % Growth Inhibition (SF-539; 6-Day Assay, Conc. 10^−5 Molar): 15-20% | % Growth Inhibition (UACC-257): 20% | % Growth Inhibition (MDA-MB-231): 80% | % Growth Inhibition (RXF-393): 30% | % Growth Inhibition (IGROV1): 10% | % Growth Inhibition (ACHN): 20% | % Growth Inhibition (SK-MeL-5; 2-Day Assay, Conc. 10^−2 Molar): 5% | % Growth Inhibition (SK-MeL-5; 6-Day Assay, Conc. 10^−5 Molar): 10% | % Growth Inhibition (CCRF-CEM; 2-Day Assay, Conc. 10^−2 Molar): 5% | % Growth Inhibition (CCRF-CEM; 6-Day Assay, Conc. 10^−5 Molar): 5-10% | % Growth Inhibition (T-47D; 2-Day Assay, Conc. 10^−2 Molar): 10% | % Growth Inhibition (T-47D; 6-Day Assay, Conc. 10^−5 Molar): 25% | % Growth Inhibition (NCI-H226; 2-Day Assay, Conc. 10^−2 Molar): 5% | % Growth Inhibition (NCI-H226; 6-Day Assay, Conc. 10^−5 Molar): 5-10% | % Growth Inhibition (HCC-299): 20% | % Growth Inhibition (MCF-7): 20% | % Growth Inhibition (OVCAR-3): 20% | Number of the 60 cancer cell lines against which the peptide appeared cytostatic (not cytotoxic) (60 cancer cell lines): 38 | % Growth Inhibition (NCI-H460): 30% | % Growth Inhibition (DU-145): 10% | % Inhibition Of Activity: Kidney tumor growth [1]: 70%
